Reference: patent US10266544B2, “Aryl substituted aminomethyl spectinomycin analogs as antibacterial agents” (ST. JUDE CHILDREN'S RESEARCH HOSPITAL, INC., priority 2013, dated 2019)
Structures can show the parent of a compound that is named as a salt. Where two headings read alike, the source gives them in different places.

Legend:
Type in all cases: cell-based
[1] = test system: Bacillus anthracis, Sterne 34F2; assay: microbe, parasite or virus in culture; conditions: STERNE34F2, read-out: MIC B.a.
[2] = test system: Bacillus subtilis (ATCC 23857); assay: MIC determination, microbroth dilution
[3] = test system: Staphylococcus aureus (ATCC 29213); assay: MIC determination, microbroth dilution; conditions: ATCC29213; Staphylococcus aureus (ATCC 29213); read-out: MIC S.a.
[4] = test system: MRSA, Staphylococcus aureus (NRS70); assay: MIC determination, microbroth dilution; conditions: Staphylococcus aureus (NRS70); read-out: MIC MRSA
[5] = test system: Streptococcus pneumoniae (R6); assay: MIC determination, microbroth dilution; conditions: read-out: MIC S. pn.
[6] = test system: Streptococcus pyogenes (ATCC 700294); assay: MIC determination, microbroth dilution
[7] = test system: acinetobacter baumannii (ATCC 19606); assay: MIC determination, microbroth dilution; conditions: ATCC19606
[8] = test system: Burkholderia cepacia (ATCC 25416); assay: MIC determination, microbroth dilution; conditions: Burkholderia cepacia
[9] = test system: Escherichia coli (ATCC 700926); assay: MIC determination, microbroth dilution
E. coli K12 ΔtolC = assay: microbe, parasite or virus in culture; conditions: Escherichia coli, read-out: MIC E.c. Δtolc
[10] = test system: Klebsiella pneumoniae (ATCC 33495); assay: MIC determination, microbroth dilution; conditions: ATCC33495
[11] = test system: Pseudomonas aeruginosa (PA01); assay: MIC determination, microbroth dilution
[12] = test system: Proteus mirabilis (ATCC 25933); assay: MIC determination, microbroth dilution; conditions: ATCC25933
[13] = test system: Proteus vulgaris (ATCC 33420); assay: MIC determination, microbroth dilution; conditions: ATCC33420
[14] = test system: Stenotrophomonas maltophilia (ATCC 13637); assay: MIC determination, microbroth dilution
[15] = test system: Haemophilus influenza (ATCC 49247); assay: microbe, parasite or virus in culture; conditions: ATCC49247; Haemophilus influenza; 4 μg per disc; range of at least two experiments; read-out: Zone of inhibition H.i.
[16] = test system: Legionella pneumophila (ATCC 33153); assay: microbe, parasite or virus in culture; conditions: ATCC33153, 72 h, read-out: Zone of inhibition L.p.
[17] = test system: Neisseria meningitides (ATCC 13077); assay: Disc diffusion assay; conditions: ATCC13077, 4 μg per disc, read-out: Zone of inhibition N.m.
[18] = test system: Neisseria gonorrhoeae (ATCC 49226); assay: Disc diffusion assay; conditions: ATCC49226, 4 μg per disc, read-out: Zone of inhibition N.g.
Bacillus anthracis = assay: microbe, parasite or virus in culture; conditions: read-out: MIC B.a.
[19] = test system: M. tuberculosis clinical isolates; assay: microbe, parasite or virus in culture; conditions: Mycobacterium tuberculosis
Listeria monocytogenes = assay: MIC determination (Table 6)
Moraxella catarrhalis = assay: MIC determination (Table 6)
[20] = ATCC23857, Bacillus subtilis (ATCC 23857), read-out: MIC B.s.
[21] = ATCC700294, Streptococcus pyogenes (ATCC 700294), read-out: MIC S. py.
[22] = ATCC25416, read-out: MIC B.c., Burkholderia cepacia (ATCC 25416)
[23] = ATCC25416, read-out: MIC B.c., Burkholderia cepacia, Table 6
[24] = ATCC700926, Escherichia coli (ATCC 700926), read-out: MIC E.c.
[25] = ATCC13637, Stenotrophomonas maltophilia (ATCC 13637), read-out: MIC S.m.
[26] = Bacillus subtilis, ATCC23857, read-out: MIC B.s.
[27] = Streptococcus pyogenes, ATCC700294, read-out: MIC S. py.

| SMILES | MIC [1] [µg/mL] | MIC [3] [µg/mL] | MIC [4] [µg/mL] | MIC ([5]; Streptococcus pneumoniae (R6)) [µg/mL] | MIC [7] [µg/mL] | MIC [8, 22] [µg/mL] | MIC [8, 23] [µg/mL] | MIC (E. coli K12 ΔtolC) [µg/mL] | MIC [10] [µg/mL] | MIC [11] [µg/mL] | MIC [12] [µg/mL] | MIC [13] [µg/mL] | zone of inhibition at 4 µg/disc [15] [mm] | zone of inhibition at 4 µg/disc [16] [mm] | zone of inhibition at 4 µg/disc [17] [mm] | zone of inhibition at 4 µg/disc [18] [mm] | MIC (Bacillus anthracis) [µg/mL] | MIC ([19]; H37RV, read-out: MIC H37Rv) [µg/mL] | MIC (Listeria monocytogenes) [µg/mL] | MIC (Moraxella catarrhalis) [µg/mL] | other results |
| --- | --- | --- | --- | --- | --- | --- | --- | --- | --- | --- | --- | --- | --- | --- | --- | --- | --- | --- | --- | --- | --- |
| CN[C@@H]1[C@H](O)[C@H](NC)[C@H]2O[C@]3(O)[C@H](O[C@@H]2[C@H]1O)O[C@H](C)C[C@@]3(O)CNCCN1CCOCC1 [compound 51, 3′-(R)-3′-[(2-morpholinoethyl)aminomethyl]dihydrospectinomycin tetrahydrochloride] | 100 to 200 | 100 to 200 | > 200 | 100 | > 200 | > 200 | > 200 | 25 to 50 | 100 to 200 | ≥ 200 | 50 to 100 | ≥ 200 | 6 | 22 | 6 | 0 | 100 to 200 | 25 | 25 | 3.1 | MIC [2, 20]: 50 to 100 µg/mL; MIC [6, 21]: 100 µg/mL; MIC [9, 24]: 50 µg/mL; MIC [14, 25]: 50 µg/mL; MIC ([19]; read-out: MIC TN022): 50 µg/mL; MIC ([19]; read-out: MIC TN026): 100 µg/mL |
| CN[C@@H]1[C@H](O)[C@H](NC)[C@H]2O[C@]3(O)[C@H](O[C@@H]2[C@H]1O)O[C@H](C)C[C@@]3(O)CNCCC1CCOCC1 [compound 52, 3′-(R)-3′-[(2-(tetrahydro-2H-pyran-4-yl)ethyl)aminomethyl]dihydrospectinomycin Trihydrochloride] | 50 to 100 | 200 | > 200 | 25 to 50 | > 200 | > 200 | > 200 | 25 to 50 | 100 | > 200 | 200 | > 200 | 10 | 32 | 12 | 7 | 50 to 100 | 3.1 | 12.5 | 3.1 | MIC [2, 20]: 25 µg/mL; MIC [6, 21]: 100 µg/mL; MIC [9, 24]: 50 to 100 µg/mL; MIC [14, 25]: 12.5 to 25 µg/mL; MIC ([19]; read-out: MIC TN022): 6.3 µg/mL; MIC ([19]; read-out: MIC TN026): 3.1 µg/mL |
| CN[C@@H]1[C@H](O)[C@H](NC)[C@H]2O[C@]3(O)[C@H](O[C@@H]2[C@H]1O)O[C@H](C)C[C@@]3(O)CNCCc1ccc(OC)cc1 [compound 53, 3′-(R)-3′-[(4-methoxy)phenethylaminomethyl]dihydrospectinomycin Trihydrochloride] | 25 to 50 | 25 | 100 |  | > 200 | > 200 | > 200 | 12.5 | 100 to 200 | > 200 | > 200 | 200 | 11 | 30 | 10 | 12 | 25 to 50 | 6.3 | 6.3 | 3.1 | MIC [2, 26]: 12.5 µg/mL; MIC ([5]; Streptococcus pneumoniae): 12.5 µg/mL; MIC [6, 27]: 12.5 to 25 µg/mL; MIC [9, 24]: 50 µg/mL; MIC ([14]; Stenotrophomonas maltophilia, ATCC13637, read-out: MIC S.m.): 12.5 µg/mL; MIC ([19]; read-out: MIC TN022): 12.5 µg/mL; MIC ([19]; read-out: MIC TN026): 12.5 µg/mL |
| CN[C@@H]1[C@H](O)[C@H](NC)[C@H]2O[C@]3(O)[C@H](O[C@@H]2[C@H]1O)O[C@H](C)C[C@@]3(O)CNCCc1ccc(Cl)cc1 [compound 54, 3′-(R)-3′-[(4-chloro)phenethylaminomethyl]dihydrospectinomycin Trihydrobromide] | 200 | 100 to 200 | > 200 | 25 | > 200 | > 200 | > 200 | 12.5 to 25 | > 200 | > 200 | > 200 | > 200 | 9 | 15 | 7 | 11 | 200 | 25 | 25 | 6.3 | MIC [2, 20]: 25 to 50 µg/mL; MIC [6, 21]: 25 µg/mL; MIC [9, 24]: 50 to 100 µg/mL; MIC [14, 25]: ≥ 200 µg/mL; MIC ([19]; read-out: MIC TN022): 25 µg/mL; MIC ([19]; read-out: MIC TN026): 50 µg/mL |
| CN[C@@H]1[C@H](O)[C@H](NC)[C@H]2O[C@]3(O)[C@H](O[C@@H]2[C@H]1O)O[C@H](C)C[C@@]3(O)CNCCc1ccc(C)c(C)c1 [compound 55, 3′-(R)-3′-[(3,4-dimethyl)phenethylaminomethyl]dihydrospectinomycin Trihydrochloride] | 100 | 100 | > 200 | 12.5 | > 200 | > 200 | > 200 | 12.5 to 25 | > 200 | > 200 | > 200 | > 200 | 9 | 15 | 8 | 11 | 100 | 25 | 25 | 3.1 | MIC [2, 20]: 50 µg/mL; MIC [6, 27]: 12.5 to 25 µg/mL; MIC [9, 24]: 100 to 200 µg/mL; MIC [14, 25]: 50 µg/mL; MIC ([19]; read-out: MIC TN022): 50 µg/mL; MIC ([19]; read-out: MIC TN026): 50 µg/mL |
| CN[C@@H]1[C@H](O)[C@H](NC)[C@H]2O[C@]3(O)[C@H](O[C@@H]2[C@H]1O)O[C@H](C)C[C@@]3(O)CNCc1ccccc1Cl [compound 56, 3′-(R)-3′-[(2-chloro)benzylaminomethyl]dihydrospectinomycin Trihydrobromide] | > 200 | > 200 | > 200 | 100 | > 200 | > 200 | > 200 | > 200 | > 200 | > 200 | > 200 | > 200 | 0 | 0 | 0 | 0 | > 200 | > 200 | > 200 | 100 | MIC [2, 20]: > 200 µg/mL; MIC [6, 21]: 50 µg/mL; MIC [9, 24]: > 200 µg/mL; MIC [14, 25]: > 200 µg/mL |
| CN[C@@H]1[C@H](O)[C@H](NC)[C@H]2O[C@]3(O)[C@H](O[C@@H]2[C@H]1O)O[C@H](C)C[C@@]3(O)CNCCc1ccc(OC(F)(F)F)cc1 [compound 57, 3′-(R)-3′-[(4-trifluoromethoxy)phenethylaminomethyl]dihydrospectinomycin Trihydrochloride] | 25 | 25 | 50 to 100 | 3.1 | ≥ 200 | ≥ 200 | ≥ 200 | 1.3 to 3.1 | > 200 | > 200 | 200 | 200 | 12 | 22 | 15 | 14 | 25 | 12.5 | 6.3 | 0.8 | MIC [2, 26]: 12.5 µg/mL; MIC [6, 21]: 3.1 to 6.3 µg/mL; MIC ([9]; Escherichia coli, ATCC700926, read-out: MIC E.c.): 25 µg/mL; MIC [14, 25]: 50 to 100 µg/mL; MIC ([19]; read-out: MIC TN022): 6.3 µg/mL; MIC ([19]; read-out: MIC TN026): 25 µg/mL |
